Measurements as given in patent publication US20100320428A1, “GASEOUS DIELECTRICS WITH LOW GLOBAL WARMING POTENTIALS” (priority 2006, published 2010).
Counter-ions that a name gives are not always drawn. Like-named read-outs stand apart in the source and are kept apart here. Values belong to the molecule of their own block, whether it stands above or below them.

Columns and labels:
[1] = boiling point; Table 2, preferred dielectric compounds; cited from earlier work
[2] = Dielectric strength by ASTM D2477; type: physicochemical; details: 1 atmosphere pressure, 0.1 inch gap, ambient temperature; ASTM D2477 or from literature
[3] = Breakdown voltage at maximum system pressure; type: physicochemical; details: for Breakdown voltage at maximum pressure: at maximum pressure: 5 atmospheres (73.5 psia), or lower pressure at which the gas liquefies; for Breakdown voltage compared with air: 1 atmosphere and maximum system pressure
[4] = atmospheric pressure; cited from earlier work
[5] = gas phase; cited from earlier work
[6] = normal state; cited from earlier work

Compound: FC(F)F [Trifluoromethane]
MY BP [1]: −82.1 °C

Dielectric strength [2]: 6.6 kV/0.1 inch gap | Breakdown voltage at maximum pressure [3]: 33 kV/0.1 inch gap
Compound: FCC(F)(F)F [Gas R134a, 1,1,1,2-Tetrafluoroethane]

Compound: Cl [Hydrogen chloride]
MY BP [1]: −85.0 °C

Compound: CCF [Fluoroethane]
MY BP [1]: −37.7 °C

Compound: FC(F)(F)S [trifluoromethane thiol]
MY BP [1]: −36.7 °C

Compound: FCF [Difluoromethane]
MY BP [1]: −51.7 °C

Compound: FC(F)(F)C(F)(F)F [Hexafluoroethane]
MY BP [1]: −78.2 °C

Compound: F[Si](F)(F)F [SiF4, silicon tetrafluoride]
Breakdown voltage compared with air [3]: greater then air

Compound: O=C(C(=O)C(F)F)C(F)F [1,1,4,4-tetrafluoro-butane-2,3-dione]
MY BP [1]: −81.0 °C

Compound: FC(F)(F)C(F)(F)C(F)(F)F [Octafluoropropane]
MY BP [1]: −36.7 °C

Compound: C#CC(F)(F)F [3,3,3-trifluoro-propyne]
MY BP [1]: −48.0 °C

Compound: CC(N)C(=O)O (racemic) [DL-2-aminopropanoic acid]
MY BP [1]: −50.2 °C

Compound: CC [Ethane]
MY BP [1]: −88.6 °C

Compound: COC(F)(F)F [Ether, methyl trifluoromethyl]
MY BP [1]: −24.0 °C

Compound: N#CC(F)(F)F [Trifluoroacetonitrile]
MY BP [1]: −68.8 °C

Compound: FC(F)C(F)(F)F [Gas R125, Pentafluoroethane]
Dielectric strength [2]: 6.4 kV/0.1 inch gap | Breakdown voltage at maximum pressure [3]: 32 kV/0.1 inch gap

Compound: FCC(F)(F)F [1,1,1,2-Tetrafluoroethane]
MY BP [1]: −26.1 °C

Compound: FC(F)OC(F)(F)F [Difluoromethyl trifluoromethyl ether]
MY BP [1]: −35.3 °C

Compound: O=CC(F)(F)F [trifluoroacetaldehyde]
MY BP [1]: −21.0 °C

Compound: FC(F)C(F)F [1,1,2,2-Tetrafluoroethane]
MY BP [1]: −23.0 °C

Compound: Cl [HCl, hydrogen chloride]
Breakdown voltage compared with air [3]: greater then air

Compound: FS(F)(F)(F)(F)F [SF6, Sulfur hexafluoride]
Dielectric strength [2]: 14.0 kV/0.1 inch gap | Breakdown voltage at maximum pressure [3]: 70 kV/0.1 inch gap | Breakdown voltage compared with air [4]: nearly three times higher than air | Temperature below which it does not decompose [5]: ≥ 500 °C | Toxicity [6]: non-toxic

Compound: FC(F)(F)C#CC(F)(F)F [1,1,1,4,4,4-hexafluoro-2-butyne]
MY BP [1]: −24.6 °C

Compound: N#N [Nitrogen]
MY BP [1]: −195.8 °C

Compound: N [Ammonia]
MY BP [1]: −33.3 °C

Compound: [N-]=[N+]=O [Nitrous oxide]
MY BP [1]: −88.5 °C

Compound: CC(F)(F)F [Gas R143a, 1,1,1-Trifluoroethane]
Dielectric strength [2]: 5.8 kV/0.1 inch gap | Breakdown voltage at maximum pressure [3]: 29 kV/0.1 inch gap

Compound: FC(F)(F)F [Tetrafluoromethane]
MY BP [1]: −128.1 °C

Compound: CC(F)F [Gas R152a, 1,1-Difluoroethane]
Dielectric strength [2]: 5.9 kV/0.1 inch gap | Breakdown voltage at maximum pressure [3]: 29.5 kV/0.1 inch gap
